Source: ChEMBL document CHEMBL1201862, “PubChem BioAssay data set” (2004)
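A five-concentration, 48-hour dose response in 96-well plates underlies each endpoint, interpolated linearly between surrounding concentrations. The concentration for 50% growth inhibition is given as GI50.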 The source made the active and inactive calls. Cut-off read from the data, not from the text of the source: active = GI50 up to about 1.1 µM and inactive = higher.

Columns and labels:
Assay in all cases: NCI anticancer screen, dose series, 48 h
[1] = test system: KM-20L2
[2] = test system: DMS-114
[3] = test system: DLD-1
[4] = test system: DMS-273
[5] = test system: HOP-18
[6] = test system: XF498
[7] = test system: M19-MEL
[8] = test system: SNB-78
[9] = test system: RXF 631

Structure (SMILES)	GI50 [1]	GI50 [2]	GI50 [3]	GI50 [4]	GI50 [5]	GI50 [6]	GI50 [7]	GI50 [8]	GI50 [9]
Cc1ccc2c(ccc(/C=C\c3cc(C)c4cccnc4c3O)[n+]2C)c1	2.84 µM (inactive)	0.811 µM (active)	0.849 µM (active)	0.352 µM (active)	1.81 µM (inactive)				
O=C1CC[C@@H](S(=O)(=O)c2ccccc2)[C@@H](/C=C/c2ccccc2)O1	> 100 µM (inactive)	> 100 µM (inactive)			> 100 µM (inactive)	< 0.01 µM (active)	> 100 µM (inactive)		
Cc1ccc(NC(=O)CC/C(CC(=O)C(C)(C)C)=N\NC(=O)C[n+]2ccccc2)cc1C	> 100 µM (inactive)	73.6 µM (inactive)		> 100 µM (inactive)	> 100 µM (inactive)	87.7 µM (inactive)	> 100 µM (inactive)	> 100 µM (inactive)	
CCC1(O)C(=O)OCc2c1cc1n(c2=O)Cc2c-1nc1ccccc1c2OC (centres undefined)	0.0512 µM (active)	< 0.0117 µM (active)	0.488 µM (active)	< 0.01 µM (active)	0.372 µM (active)		0.0438 µM (active)	2.13 µM (inactive)	
O=[N+]([O-])c1cnn(C2=CNc3ccccc3N=C2)c1	> 100 µM (inactive)		> 100 µM (inactive)	> 100 µM (inactive)	> 100 µM (inactive)	> 100 µM (inactive)	> 100 µM (inactive)	> 100 µM (inactive)	> 100 µM (inactive)
CCOC(=O)/C(C)=C(/O)C(=O)OCC		> 100 µM (inactive)	> 100 µM (inactive)	> 100 µM (inactive)	> 100 µM (inactive)	> 100 µM (inactive)		> 100 µM (inactive)	> 100 µM (inactive)
COC(=O)C1=C(C[S+]([O-])c2ccc([N+](=O)[O-])cc2[N+](=O)[O-])C2C=CC1C2 (centres undefined)	22 µM (inactive)	23.4 µM (inactive)	19.1 µM (inactive)	20.2 µM (inactive)	29.4 µM (inactive)	28.5 µM (inactive)	20.1 µM (inactive)	48.3 µM (inactive)	17.8 µM (inactive)
N#CC(C#N)=c1ccc(=C2NCC3CCCN23)cc1 (centres undefined)	> 100 µM (inactive)	> 100 µM (inactive)		> 100 µM (inactive)	> 100 µM (inactive)		> 100 µM (inactive)	> 100 µM (inactive)	
Cc1ccc(C(=O)NCCN(C)C)c2nc3ccccc3cc12	0.661 µM (active)	2.78 µM (inactive)	1.32 µM (inactive)	0.467 µM (active)	1.92 µM (inactive)	1.38 µM (inactive)	2.31 µM (inactive)	13.2 µM (inactive)	0.817 µM (active)
COC1O[C@@H]2COC(C)(C)O[C@@H]2C(=O)N1Nc1ccc([N+](=O)[O-])cc1 (some centres undefined)	> 100 µM (inactive)		35.1 µM (inactive)	> 100 µM (inactive)	> 100 µM (inactive)	> 100 µM (inactive)	> 100 µM (inactive)		
COC(=O)[C@@]12C3=NO[C@]1(C(=O)OC)C(O[Si](C)(C)C(C)(C)C)C1OC(C)(C)OC1[C@@H]2[C@@H](OCc1ccccc1)CC3 (some centres undefined)	> 100 µM (inactive)	49.5 µM (inactive)	> 100 µM (inactive)	51.4 µM (inactive)	> 100 µM (inactive)		> 100 µM (inactive)		
Cc1ccc(C(=O)N2CCN(C(=O)c3ccc(C)cc3)c3ccccc32)cc1	3.28 µM (inactive)	3.78 µM (inactive)	4.23 µM (inactive)	2.05 µM (inactive)	17.7 µM (inactive)	4.93 µM (inactive)	4.39 µM (inactive)	6.97 µM (inactive)	
CC(C)(C)CC(C)(C)NCC(O)COc1ccc(C(C)(C)c2ccc(OCC(O)CNC(C)(C)CC(C)(C)C)cc2)cc1 (centres undefined)	1.47 µM (inactive)	1.76 µM (inactive)	0.832 µM (active)	1.04 µM (active)		1.64 µM (inactive)	1.53 µM (inactive)	1.95 µM (inactive)	
COP(=O)(OC)C(NC(=O)C(F)(F)F)(c1ccccc1)C(F)(F)F (centres undefined)	> 100 µM (inactive)	> 100 µM (inactive)	> 100 µM (inactive)	> 100 µM (inactive)	> 100 µM (inactive)	> 100 µM (inactive)	> 100 µM (inactive)		
C=CCNC(=O)NCCCCC(NC(C)=O)C(=O)NCc1ccccc1 (centres undefined)	> 100 µM (inactive)	> 100 µM (inactive)		> 100 µM (inactive)	> 100 µM (inactive)	> 100 µM (inactive)	> 100 µM (inactive)		
COc1ccc2c(c1)Oc1cc(O)ccc1[C@@H]2c1ccccc1C(=O)NC(C)c1ccccc1 (some centres undefined)	14.9 µM (inactive)	12.7 µM (inactive)	13.9 µM (inactive)	14.3 µM (inactive)			15.9 µM (inactive)	13.3 µM (inactive)	
COC(=O)N/N=C(\C(=O)Nc1cccc([N+](=O)[O-])c1)c1nc2ccc([N+](=O)[O-])cc2nc1O	13.9 µM (inactive)	8.09 µM (inactive)	> 100 µM (inactive)		> 100 µM (inactive)	0.494 µM (active)	74.3 µM (inactive)		
Oc1cc(-c2ccc3c(c2)OCO3)nc2cc3c(cc12)OCO3			55.8 µM (inactive)	21.3 µM (inactive)	72.6 µM (inactive)	31.8 µM (inactive)	20.5 µM (inactive)	43 µM (inactive)	
COc1ccc(C(O)/C(=C/n2ccnc2)c2ccccc2)cc1OC (centres undefined)	> 100 µM (inactive)	> 100 µM (inactive)	> 100 µM (inactive)	> 100 µM (inactive)	> 100 µM (inactive)	> 100 µM (inactive)	> 100 µM (inactive)		> 100 µM (inactive)
